Article PMC5224920, “Assessing the mechanism and therapeutic potential of modulators of the human Mediator complex-associated protein kinases” (eLife, 2016)

Tested on: 12 single or co-culture in vitro tissue models of primary cells
Assay: Culture/co-culture cell model panel, extracellular biomarkers (DiscoveRx); for CCL2/MCP-1: reference of the scale not given here; for CXCL8/IL-8: reference of the scale not given here; for CXCL9/MIG: reference of the scale not given here; for IL-1alpha: reference of the scale not given here; for PBMC Cytotoxicity: reference of the scale not given here; for SRB: reference of the scale not given here
Format: cell-based, human

## CN1c2ccc(-c3cncc(Cl)c3N3CCC4(CC3)CNC(=O)O4)cc2CS1(=O)=O [CMPD2]
BENo, 1.00E3 nM
  SRB: 0.003
  tPA: 0.049
  uPA: 0.021
BENo, 1.00E4 nM
  CCL26/Eotaxin-3: 0.048
  CD54/ICAM-1: -0.033
  CD87/uPAR: 0.057
  CXCL8/IL-8: 0.016
  CXCL9/MIG: 0.075
  CXCL10/IP-10: 0.073
  CXCL11/I-TAC: 0.025
  EGFR: 0.043
  HLA-DR: 0.040
  IL-1alpha: -0.020
  Keratin 8/18: 0.022
  MMP-1: 0.039
  MMP-9: 0.031
  PAI-I: -0.100
  SRB: 0.001
  tPA: 0.040
  uPA: -0.00475
BF4T, 1.00E0 nM
  CCL2/MCP-1: 0.022
  CCL26/Eotaxin-3: -0.032
  CD54/ICAM-1: -0.00361
  CD90: -0.036
  CD106/VCAM-1: 0.043
  CXCL8/IL-8: 0.040
  IL-1alpha: 0.007
  Keratin 8/18: -0.001
  MMP-1: 0.030
  MMP-3: 0.082
  MMP-9: 0.039
  PAI-I: -0.008
  SRB: 0.004
  tPA: 0.051
  uPA: 0.046
BF4T, 1.00E1 nM
  CCL2/MCP-1: -0.011
  CCL26/Eotaxin-3: -0.107
  CD54/ICAM-1: -0.027
  CD90: -0.009
  CD106/VCAM-1: 0.033
  CXCL8/IL-8: 0.048
  IL-1alpha: 0.020
  Keratin 8/18: -0.009
  MMP-1: 0.022
  MMP-3: 0.075
  MMP-9: 0.012
  PAI-I: 0.023
  SRB: -0.00108
  tPA: 0.047
  uPA: 0.034
BF4T, 1.00E2 nM
  CCL2/MCP-1: -0.025
  CCL26/Eotaxin-3: -0.086
  CD54/ICAM-1: -0.020
  CD90: 0.002
  CD106/VCAM-1: 0.042
  CXCL8/IL-8: 0.050
  IL-1alpha: 0.00136
  Keratin 8/18: 0.009
  MMP-1: 0.008
  MMP-3: 0.053
  MMP-9: 0.008
  PAI-I: 0.039
  SRB: 4.82e-5
  tPA: 0.063
  uPA: 0.022
BF4T, 1.00E3 nM
  CCL2/MCP-1: -0.016
  CCL26/Eotaxin-3: -0.102
  CD54/ICAM-1: -0.022
  CD90: -0.000476
  CD106/VCAM-1: 0.044
  CXCL8/IL-8: 0.047
  IL-1alpha: -0.00456
  Keratin 8/18: 0.007
  MMP-1: 0.015
  MMP-3: 0.034
  MMP-9: 0.024
  PAI-I: 0.026
  SRB: 0.00277
  tPA: 0.071
  uPA: 0.023
BF4T, 1.00E4 nM
  CCL2/MCP-1: -0.034
  CCL26/Eotaxin-3: -0.125
  CD54/ICAM-1: -0.043
  CD90: 0.000654
  CD106/VCAM-1: 0.043
  CXCL8/IL-8: 0.030
  IL-1alpha: -0.00143
  Keratin 8/18: -0.023
  MMP-1: 0.010
  MMP-3: 0.027
  MMP-9: -0.007
  PAI-I: -0.013
  SRB: 0.000752
  tPA: 0.037
  uPA: 0.017
BT, 1.00E0 nM
  B cell Proliferation: -0.010
  PBMC Cytotoxicity: 0.032
